Source: PMC13114161 (Antibiotics, 2026)
Like-named read-outs stand apart in the source and are kept apart here.

Columns and labels:
P. aeruginosa ATCC 27853 [1] = assay: MIC and levofloxacin potentiation (broth microdilution); format: cell-based, Pseudomonas aeruginosa; details: for MIC: Pseudomonas aeruginosa, ATCC27853
Protocol: Once synthesized, the three fluorinated EPI analogs (TXA11114, TXA11164 and TXA12027) were first assayed for their antibacterial activities against P. aeruginosa ATCC 27853. They had MICs of 100, >200 and 100 µg/mL, respectively (Table 1). […] Particularly, the inactivity of TXA11164 was surprising as the pKa values of both the amines are similar to that in TXA11114.
(§1) MIC assays for potentiation of antimicrobial activity against P. aeruginosa were performed as described previously.

P. aeruginosa ATCC 27853 [2] = assay: Neutropenic murine thigh infection model; format: in vivo, CD-1 mice; details: for Mean Log10 CFU (thigh): +24 hr
Protocol: Female CD-1 mice (6–8 weeks old; 22 ± 2 g) were obtained from Envigo Laboratories, quarantined for at least 3 days, and housed 5 per cage in accordance with the approved IACUC protocol (IACUC-2017-0049). Neutropenia was induced by intraperitoneal (IP) administration of cyclophosphamide (Cytoxan) at 150 mg/kg on day 4 and 100 mg/kg on day 1 prior to infection.
Mice were infected intramuscularly (IM) in the right thigh with 0.1 mL of bacterial suspension containing approximately 1 × 10^5–10^6 CFU/mL. […] At 2 h or 24 h post-infection, mice were euthanized by CO2 asphyxiation, and thighs were aseptically excised and placed in 2 mL sterile phosphate-buffered saline (PBS) on ice. Tissue homogenization was performed using a Polytron PT10-35 (12 mm aggregate, Kinematica, Malters, Switzerland).
Plates were incubated overnight at 37 °C, and colonies were enumerated the following day.

[3] = system: multidrug-resistant P. aeruginosa clinical isolates from the CDC-FDA; assay: Levofloxacin MIC potentiation, CDC-FDA isolates; format: cell-based, Pseudomonas aeruginosa; details: for Levofloxacin MIC fold difference, +EPI / Levofloxacin MIC, +EPI: EPI […] (TXA11114, TXA09155) or 50 μg/mL (MC-04,124, PAβN); for MIC: Pseudomonas aeruginosa
Protocol: In a comparative study, the levofloxacin-potentiating activity of TXA11114 was evaluated alongside the well-characterized EPIs PAβN and MC-04,124 using P. aeruginosa clinical isolates obtained from the CDC and FDA Antimicrobial Resistance Isolate Bank and the Walter Reed Army Institute of Research (WRAIR). […] While PAβN has been widely studied in laboratory strains, its activity against the CDC/FDA P. aeruginosa panel has been reported only sparingly, limiting direct cross-study comparisons.
as §1

CYP2C9 = target: T1, CYP2C9 (Homo sapiens, UniProt P11712); assay: Cytochrome P450 inhibition; format: in vitro ADME; details: probe diclofenac; human liver microsomes; read-out: CYP Inhibition IC50, 2C9
T1 construct: from tissue; host or cells: human liver microsomes
T1 sequence (P11712 whole entry): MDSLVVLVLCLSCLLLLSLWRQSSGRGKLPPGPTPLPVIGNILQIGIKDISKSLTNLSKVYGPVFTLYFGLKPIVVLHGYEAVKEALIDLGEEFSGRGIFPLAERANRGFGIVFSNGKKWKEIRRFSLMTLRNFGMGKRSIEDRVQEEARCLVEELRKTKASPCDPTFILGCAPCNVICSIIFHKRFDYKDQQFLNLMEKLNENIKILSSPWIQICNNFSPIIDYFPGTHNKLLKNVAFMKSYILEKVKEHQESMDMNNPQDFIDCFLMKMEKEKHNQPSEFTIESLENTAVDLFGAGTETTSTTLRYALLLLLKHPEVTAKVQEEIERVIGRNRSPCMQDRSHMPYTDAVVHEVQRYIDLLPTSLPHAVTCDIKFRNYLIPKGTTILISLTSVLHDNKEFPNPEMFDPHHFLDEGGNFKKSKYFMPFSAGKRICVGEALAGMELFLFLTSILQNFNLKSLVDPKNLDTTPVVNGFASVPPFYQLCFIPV
Protocol: (§2) Inhibition of CYP1A2, CYP2D6, CYP2C9, CYP2C19, and CYP3A4 by TXA11114 was assessed in human liver microsomes by measuring the inhibition of probe substrate metabolism. Phenacetin, bufuralol, diclofenac, S-mephenytoin, and midazolam were used as probe substrates for CYP1A2, CYP2D6, CYP2C9, CYP2C19, and CYP3A4, respectively. Corresponding metabolites (acetaminophen, OH-bufuralol, 4-OH diclofenac, 4-OH mephenytoin, and 1-OH midazolam) were quantified by LC-MS/MS. Selective inhibitors (fluvoxamine (CYP1A2), quinidine (CYP2D6), sulfaphenazole (CYP2C9), ticlopidine (CYP2C19), and ketoconazole (CYP3A4)) were used as positive controls. Test and control compounds, prepared in DMSO at various concentrations, were spiked into 2× microsomal reaction mixtures, and 50 µL aliquots were transferred to individual wells. Probe substrates (25 µL, 4× concentration) were added to the respective wells and pre-incubated for 5 min at 37 °C. Reactions were initiated by the addition of 25 µL NADPH (4×) and incubated for 5 min (CYP3A4), 10 min (CYP1A2, CYP2D6, CYP2C9), or 20 min (CYP2C19). Reactions were quenched with 100 µL ice-cold acetonitrile containing glipizide as an internal standard. Plates were centrifuged at 4000 rpm for 15 min, and 100 µL supernatants were analyzed by LC-MS/MS in MRM mode. […] Percent inhibition was calculated as 100 − percent activity. IC50 values were determined using GraphPad Prism (version 5.02).

CYP2C19 = target: T2, CYP2C19 (Homo sapiens, UniProt P33261); assay: Cytochrome P450 inhibition; format: in vitro ADME; details: probe S-mephenytoin; human liver microsomes; read-out: CYP Inhibition IC50, 2C19
T2 construct: from tissue; host or cells: human liver microsomes
T2 sequence (P33261 whole entry): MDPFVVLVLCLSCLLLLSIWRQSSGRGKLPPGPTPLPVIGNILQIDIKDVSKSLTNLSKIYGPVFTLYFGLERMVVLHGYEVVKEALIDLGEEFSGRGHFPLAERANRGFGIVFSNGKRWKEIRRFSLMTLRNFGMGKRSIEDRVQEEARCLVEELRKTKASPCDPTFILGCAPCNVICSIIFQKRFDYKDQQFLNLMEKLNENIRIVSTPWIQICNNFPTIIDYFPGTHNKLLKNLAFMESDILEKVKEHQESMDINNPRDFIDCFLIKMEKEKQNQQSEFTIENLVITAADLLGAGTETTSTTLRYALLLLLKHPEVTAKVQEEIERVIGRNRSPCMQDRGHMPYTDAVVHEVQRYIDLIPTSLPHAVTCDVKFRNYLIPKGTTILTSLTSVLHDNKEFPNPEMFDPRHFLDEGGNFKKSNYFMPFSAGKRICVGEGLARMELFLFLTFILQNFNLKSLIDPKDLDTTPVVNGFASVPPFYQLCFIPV
Protocol: as §2

CYP1A2 = target: T3, CYP1A2 (Homo sapiens, UniProt P05177); assay: Cytochrome P450 inhibition; format: in vitro ADME; details: probe phenacetin; human liver microsomes; read-out: CYP Inhibition IC50, 1A2
T3 construct: from tissue; host or cells: human liver microsomes
T3 sequence (P05177 whole entry): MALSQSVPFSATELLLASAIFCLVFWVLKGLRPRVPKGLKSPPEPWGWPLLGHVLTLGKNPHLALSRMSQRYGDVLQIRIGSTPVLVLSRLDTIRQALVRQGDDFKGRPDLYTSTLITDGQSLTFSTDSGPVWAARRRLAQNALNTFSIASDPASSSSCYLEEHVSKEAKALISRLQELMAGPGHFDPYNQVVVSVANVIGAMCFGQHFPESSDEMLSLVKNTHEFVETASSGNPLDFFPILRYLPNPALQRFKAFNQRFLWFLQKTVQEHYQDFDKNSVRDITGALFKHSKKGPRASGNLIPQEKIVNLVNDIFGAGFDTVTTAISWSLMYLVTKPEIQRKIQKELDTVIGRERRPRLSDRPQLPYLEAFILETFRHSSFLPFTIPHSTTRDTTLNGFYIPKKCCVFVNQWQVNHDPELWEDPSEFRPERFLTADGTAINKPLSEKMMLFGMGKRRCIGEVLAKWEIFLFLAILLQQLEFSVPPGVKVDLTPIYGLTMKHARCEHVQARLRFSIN
Protocol: as §2

P. aeruginosa = assay: Effect of inoculum on levofloxacin potentiation (MIC); format: cell-based, Pseudomonas aeruginosa; details: TXA11114 0 μg/mL
Protocol: as §1

[4] = system: P. aeruginosa DA7232 (gyrA-T83I, parC-S80L); assay: Levofloxacin MIC potentiation; format: cell-based, Pseudomonas aeruginosa; details: Pseudomonas aeruginosa, read-out: Levofloxacin MIC
Protocol: as §1

[5] = levofloxacin 10 mg/kg SC QID, alone or with TXA11114 30 mg/kg IV QID

For `NC[C@@H]1CN[C@H](CNC(=O)c2cc3ccc(-c4ccc(F)cc4)cc3[nH]2)C1` [TXA09155], the “Fold MIC reduction [LVX/EPI-LVX]” value (P. aeruginosa ATCC 27853 [1]; EPI at […], ATCC 27853) was 16 fold, the MIC (P. aeruginosa ATCC 27853 [1]; EPI alone, ATCC 27853, read-out: EPI MIC) was 50 µg/mL and the LVX MIC (+EPI) (P. aeruginosa ATCC 27853 [1]; levofloxacin MIC with EPI at […], ATCC 27853) was 0.063 µg/mL. For the same molecule, the “Improvement of levofloxacin efficacy in murine thigh or lung infection models” value (P. aeruginosa ATCC 27853 [2]; thigh or lung infection models) was “neither TXA01182 nor TXA09155 improved levofloxacin efficacy”, the “Levofloxacin MIC fold difference, +EPI” value ([3]; AR-0229) was 32 fold and the “Levofloxacin MIC, +EPI” value ([3]; AR-0229) was 2 µg/mL. For the same molecule, the “Levofloxacin MIC fold difference, +EPI” value ([3]; AR-0232) was 16 fold, the “Levofloxacin MIC, +EPI” value ([3]; AR-0232) was 0.5 µg/mL and the “Levofloxacin MIC fold difference, +EPI” value ([3]; AR-0233) was 32 fold. The “Levofloxacin MIC, +EPI” value ([3]; AR-0233) was 0.125 µg/mL, the “Levofloxacin MIC fold difference, +EPI” value ([3]; AR-0234) was 16 fold and the “Levofloxacin MIC, +EPI” value ([3]; AR-0234) was 0.5 µg/mL. The “Levofloxacin MIC fold difference, +EPI” value ([3]; AR-0239) was 16 fold, the “Levofloxacin MIC, +EPI” value ([3]; AR-0239) was 4 µg/mL and the “Levofloxacin MIC, +EPI” value ([3]; AR-0242) was 1 µg/mL. The “Levofloxacin MIC, +EPI” value ([3]; AR-0244) was 2 µg/mL, the “Levofloxacin MIC fold difference, +EPI” value ([3]; AR-0246) was 8, (8) fold and the “Levofloxacin MIC, +EPI” value ([3]; AR-0246) was 8, (8) μg/mL. The “Levofloxacin MIC fold difference, +EPI” value ([3]; AR-0248) was 32 fold, the “Levofloxacin MIC, +EPI” value ([3]; AR-0248) was 0.5 µg/mL and the “Levofloxacin MIC fold difference, +EPI” value ([3]; AR-0249) was 32 fold. The “Levofloxacin MIC, +EPI” value ([3]; AR-0249) was 2 µg/mL, the “Levofloxacin MIC fold difference, +EPI” value ([3]; AR-0252) was 64 fold and the “Levofloxacin MIC, +EPI” value ([3]; AR-0252) was 0.5 µg/mL. For the same molecule, the “Levofloxacin MIC fold difference, +EPI” value ([3]; AR-0253) was 64 fold, the “Levofloxacin MIC, +EPI” value ([3]; AR-0253) was 0.031 µg/mL and the “Levofloxacin MIC, +EPI” value ([3]; AR-0264) was 1 µg/mL. The IC50 at 10 min (CYP2C9) was over 100 µM, the IC50 at 20 min (CYP2C19) was over 100 µM and the IC50 at 10 min (CYP1A2) was over 100 µM.
`C[C@H]1COc2c(N3CCN(C)CC3)c(F)cc3c(=O)c(C(=O)O)cn1c23` [Levofloxacin, levofloxacin] was tested, and the “LVX MIC” value (P. aeruginosa; OD600 0.001) was 1 µg/mL, the “LVX MIC” value (P. aeruginosa; OD600 0.025) was 2 µg/mL and the MIC (P. aeruginosa ATCC 27853 [1]; ATCC 27853 parent strain (Table S1), read-out: MIC) was 1 µg/mL. The “Mean Log10 CFU (thigh)” value (P. aeruginosa ATCC 27853 [2]; [5]) was 7.41 log10 CFU, the “Mean Log10 CFU (thigh)” value (P. aeruginosa ATCC 27853 [2]; levofloxacin 15 mg/kg SC QID, alone or with TXA11114 30 mg/kg IV QID) was 5.97 log10 CFU and the “Mean Log10 CFU (thigh)” value (P. aeruginosa ATCC 27853 [2]; levofloxacin 20 mg/kg SC QID, alone or with TXA11114 30 mg/kg IV QID) was 4.47 log10 CFU. The “Mean Log10 CFU Change vs +2 hr Control, Δlog10 (treatment-baseline), thigh” value (P. aeruginosa ATCC 27853 [2]; [5]) was 1.33 log10 CFU, the MIC [4] was 256 µg/mL and the MIC ([3]; read-out: Levofloxacin MIC, No EPI, AR-0229) was 64 µg/mL. The MIC ([3]; read-out: Levofloxacin MIC, No EPI, AR-0232) was 8 µg/mL, the MIC ([3]; read-out: Levofloxacin MIC, No EPI, AR-0233) was 4 µg/mL and the MIC ([3]; read-out: Levofloxacin MIC, No EPI, AR-0234) was 8 µg/mL. The MIC ([3]; read-out: Levofloxacin MIC, No EPI, AR-0239) was 32 µg/mL, the MIC ([3]; read-out: Levofloxacin MIC, No EPI, AR-0242) was 8 µg/mL and the MIC ([3]; read-out: Levofloxacin MIC, No EPI, AR-0244) was 64 µg/mL. It also gave an MIC ([3]; read-out: Levofloxacin MIC, No EPI, AR-0246) of 64 µg/mL, an MIC ([3]; read-out: Levofloxacin MIC, No EPI, AR-0248) of 16 µg/mL and an MIC ([3]; read-out: Levofloxacin MIC, No EPI, AR-0249) of 64 µg/mL. It also gave an MIC ([3]; read-out: Levofloxacin MIC, No EPI, AR-0252) of 32 µg/mL, an MIC ([3]; read-out: Levofloxacin MIC, No EPI, AR-0253) of 2 µg/mL and an MIC ([3]; read-out: Levofloxacin MIC, No EPI, AR-0264) of 64 µg/mL.
